Assay results taken from US20230398130A1, “METHODS AND COMPOSITIONS FOR DIFFERENTIATING STEM CELLS” (Massachusetts Institute of Technology, priority 2020, published 2023).
Structures can show the parent of a compound that is named as a salt.

Tests used:
ISC-enriched organoids [1] = test: Primary screen, 384-well 2.5-D organoid differentiation (ENR+CD, 6 days): basal lysozyme secretion (LYZ.NS); type: cell-based, murine; conditions: for Dose.FC.LYZ.NS / Z.LYZ.NS / SSMD.LYZ.NS: primary screen; for Dose.FC.LYZ.NS: FC vs plate median; for SSMD.LYZ.NS: strictly standardized mean difference
Text: High-throughput screening.

ISC-enriched organoids [2] = test: Primary screen, 384-well 2.5-D organoid differentiation (ENR+CD, 6 days, Target Selective Inhibitor Library, vs whole-plate median): ATP (CellTiter-Glo 3D, CTG); conditions: for Dose.FC.CTG: FC vs plate median; for SSMD.CTG: strictly standardized mean difference
[3] = Dose 10.00 uM, standard z score
[4] = 1st of the 4 dose lines of the treatment (dose not given)
[5] = 2nd of the 4 dose lines of the treatment (dose not given)
[6] = 3rd of the 4 dose lines of the treatment (dose not given)
[7] = 4th of the 4 dose lines of the treatment (dose not given)
[8] = Dose 0.08 uM, primary screen, standard z score
[9] = Dose 0.40 uM, primary screen, standard z score
[10] = Dose 2.00 uM, primary screen, standard z score
[11] = Dose 10.00 uM, primary screen, standard z score
[12] = primary screen, 1st of the 4 dose lines of the treatment (dose not given)
[13] = primary screen, 2nd of the 4 dose lines of the treatment (dose not given)
[14] = primary screen, 3rd of the 4 dose lines of the treatment (dose not given)
[15] = primary screen, 4th of the 4 dose lines of the treatment (dose not given)
[16] = primary screen, dose 0.08 uM, standard z score of FC
[17] = primary screen, dose 0.40 uM, standard z score of FC
[18] = primary screen, dose 2.00 uM, standard z score of FC
[19] = primary screen, dose 10.00 uM, standard z score of FC
[20] = Dose 0.08 uM, standard z score of FC
[21] = Dose 0.40 uM, standard z score of FC
[22] = Dose 2.00 uM, standard z score of FC
[23] = Dose 10.00 uM, standard z score of FC

Cc1ccc(NC(=O)c2ccc(CN3CCN(C)CC3)cc2)cc1Nc1nccc(-c2cccnc2)n1 [Imatinib (STI571)]
Dose.FC.LYZ.NS (ISC-enriched organoids [1]; Dose 0.08 uM): 0.033 log 2 fold change
Z.LYZ.NS (ISC-enriched organoids [1]; Dose 0.08 uM, standard z score): 0.284
Dose.FC.LYZ.NS (ISC-enriched organoids [1]; Dose 0.40 uM): 0.012 log 2 fold change
Z.LYZ.NS (ISC-enriched organoids [1]; Dose 0.40 uM, standard z score): 0.104
Dose.FC.LYZ.NS (ISC-enriched organoids [1]; Dose 2.00 uM): 0.025 log 2 fold change
Z.LYZ.NS (ISC-enriched organoids [1]; Dose 2.00 uM, standard z score): 0.217
Dose.FC.LYZ.NS (ISC-enriched organoids [1]; Dose 10.00 uM): −0.038 log 2 fold change
Z.LYZ.NS (ISC-enriched organoids [1]; [3]): −0.333
SSMD.LYZ.NS (ISC-enriched organoids [1]; [4]): 0.326
SSMD.LYZ.NS (ISC-enriched organoids [1]; [5]): 0.108
SSMD.LYZ.NS (ISC-enriched organoids [1]; [6]): 0.152
SSMD.LYZ.NS (ISC-enriched organoids [1]; [7]): −0.330
Dose.FC.CTG (ISC-enriched organoids [2]; Dose 0.08 uM, primary screen): −0.150 log 2 fold change
Z.CTG (ISC-enriched organoids [2]; [8]): −0.357
Dose.FC.CTG (ISC-enriched organoids [2]; Dose 0.40 uM, primary screen): 0.079 log 2 fold change
Z.CTG (ISC-enriched organoids [2]; [9]): 0.188
Dose.FC.CTG (ISC-enriched organoids [2]; Dose 2.00 uM, primary screen): 0.056 log 2 fold change
Z.CTG (ISC-enriched organoids [2]; [10]): 0.135
Dose.FC.CTG (ISC-enriched organoids [2]; Dose 10.00 uM, primary screen): −0.034 log 2 fold change
Z.CTG (ISC-enriched organoids [2]; [11]): −0.082
SSMD.CTG (ISC-enriched organoids [2]; [12]): −0.258
SSMD.CTG (ISC-enriched organoids [2]; [13]): 0.254
SSMD.CTG (ISC-enriched organoids [2]; [14]): 0.194
SSMD.CTG (ISC-enriched organoids [2]; [15]): −0.097

C=CC(=O)N1CCC[C@@H](n2nc(-c3ccc(Oc4ccccc4)cc3)c3c(N)ncnc32)C1 [Ibrutinib (PCI-32765)]
Dose.FC.LYZ.NS (ISC-enriched organoids [1]; Dose 0.08 uM): −0.071 log 2 fold change
Z.LYZ.NS (ISC-enriched organoids [1]; Dose 0.08 uM, standard z score): −0.619
Dose.FC.LYZ.NS (ISC-enriched organoids [1]; Dose 0.40 uM): −0.141 log 2 fold change
Z.LYZ.NS (ISC-enriched organoids [1]; Dose 0.40 uM, standard z score): −1.225
Dose.FC.LYZ.NS (ISC-enriched organoids [1]; Dose 2.00 uM): −0.202 log 2 fold change
Z.LYZ.NS (ISC-enriched organoids [1]; Dose 2.00 uM, standard z score): −1.763
Dose.FC.LYZ.NS (ISC-enriched organoids [1]; Dose 10.00 uM): −0.199 log 2 fold change
Z.LYZ.NS (ISC-enriched organoids [1]; [3]): −1.737
SSMD.LYZ.NS (ISC-enriched organoids [1]; [4]): −0.704
SSMD.LYZ.NS (ISC-enriched organoids [1]; [5]): −1.031
SSMD.LYZ.NS (ISC-enriched organoids [1]; [6]): −1.175
SSMD.LYZ.NS (ISC-enriched organoids [1]; [7]): −1.325
Dose.FC.CTG (ISC-enriched organoids [2]; Dose 0.08 uM, primary screen): −0.027 log 2 fold change
Z.CTG (ISC-enriched organoids [2]; [8]): −0.065
Dose.FC.CTG (ISC-enriched organoids [2]; Dose 0.40 uM, primary screen): −0.466 log 2 fold change
Z.CTG (ISC-enriched organoids [2]; [9]): −1.112
Dose.FC.CTG (ISC-enriched organoids [2]; Dose 2.00 uM, primary screen): −0.521 log 2 fold change
Z.CTG (ISC-enriched organoids [2]; [10]): −1.244
Dose.FC.CTG (ISC-enriched organoids [2]; Dose 10.00 uM, primary screen): −0.931 log 2 fold change
Z.CTG (ISC-enriched organoids [2]; [11]): −2.224
SSMD.CTG (ISC-enriched organoids [2]; [12]): −0.062
SSMD.CTG (ISC-enriched organoids [2]; [13]): −0.574
SSMD.CTG (ISC-enriched organoids [2]; [14]): −1.005
SSMD.CTG (ISC-enriched organoids [2]; [15]): −0.875

NC(=O)c1cccc(-c2cccc(OC(=O)NC3CCCCC3)c2)c1 [URB597]
Z.LYZ.NS (standard z score) (ISC-enriched organoids [1]; dose 0.08 uM): 0.754
Z.LYZ.NS (standard z score) (ISC-enriched organoids [1]; dose 0.40 uM): −0.007
Z.LYZ.NS (standard z score) (ISC-enriched organoids [1]; dose 2.00 uM): 0.307
Z.LYZ.NS (standard z score) (ISC-enriched organoids [1]; dose 10.00 uM): −0.123
Z.CTG (standard z score) (ISC-enriched organoids [2]; dose 0.08 uM): 0.750
Z.CTG (standard z score) (ISC-enriched organoids [2]; dose 0.40 uM): 0.154
Z.CTG (standard z score) (ISC-enriched organoids [2]; dose 2.00 uM): 0.328
Z.CTG (standard z score) (ISC-enriched organoids [2]; dose 10.00 uM): −0.051

CCN(CC)C(=O)c1ccc(C2=CC3(CCNCC3)Oc3cccc(O)c32)cc1 [ADL5859 HCl]
Z.LYZ.NS (ISC-enriched organoids [1]; dose 0.40 uM, standard z score of FC): 0.163
Z.CTG (ISC-enriched organoids [2]; [16]): 0.645
Z.CTG (ISC-enriched organoids [2]; [17]): 0.389
Z.CTG (ISC-enriched organoids [2]; [18]): 0.695
Z.CTG (ISC-enriched organoids [2]; [19]): 0.465

VU 0357121
Z.LYZ.NS (standard z score) (ISC-enriched organoids [1]; dose 0.08 uM): 0.686
Z.LYZ.NS (standard z score) (ISC-enriched organoids [1]; dose 0.40 uM): −0.090
Z.LYZ.NS (standard z score) (ISC-enriched organoids [1]; dose 2.00 uM): 0.261
Z.CTG (standard z score) (ISC-enriched organoids [2]; dose 0.08 uM): 0.438
Z.CTG (standard z score) (ISC-enriched organoids [2]; dose 0.40 uM): 0.352
Z.CTG (standard z score) (ISC-enriched organoids [2]; dose 2.00 uM): 0.029
Z.CTG (standard z score) (ISC-enriched organoids [2]; dose 10.00 uM): −0.141

Cn1c(=O)cc(N2CCC[C@@H](N)C2)n(Cc2cc(F)ccc2C#N)c1=O [Trelagliptin]
Z.CTG (standard z score) (ISC-enriched organoids [2]; dose 0.08 uM): 0.482
Z.CTG (standard z score) (ISC-enriched organoids [2]; dose 0.40 uM): −0.181
Z.CTG (standard z score) (ISC-enriched organoids [2]; dose 2.00 uM): 0.120
Z.CTG (standard z score) (ISC-enriched organoids [2]; dose 10.00 uM): 0.322

NC(=O)c1ncn([C@@H]2O[C@H](CO)[C@@H](O)[C@H]2O)c1N [Acadesine]
Z.CTG (ISC-enriched organoids [2]; [16]): 0.225
Z.CTG (ISC-enriched organoids [2]; [17]): 0.413
Z.CTG (ISC-enriched organoids [2]; [18]): −0.012
Z.CTG (ISC-enriched organoids [2]; [19]): 0.182

O=C(O)/C=C/c1ccc(Cn2ccnc2)cc1 [Ozagrel HCl]
Z.CTG (ISC-enriched organoids [2]; [20]): 0.118
Z.CTG (ISC-enriched organoids [2]; [21]): 0.318
Z.CTG (ISC-enriched organoids [2]; [22]): 0.437
Z.CTG (ISC-enriched organoids [2]; [23]): 0.547

COc1ccc(-c2nc3ccc(C4=NNC(=O)CC4C)cc3[nH]2)cc1 (stereo not shown) [Pimobendan]
Z.CTG (ISC-enriched organoids [2]; [20]): −0.053
Z.CTG (ISC-enriched organoids [2]; [21]): 0.460
Z.CTG (ISC-enriched organoids [2]; [22]): 0.492
Z.CTG (ISC-enriched organoids [2]; [23]): 0.333

CCNC(=O)[C@H]1O[C@@H](n2cnc3c(N)nc(NCCc4ccc(CCC(=O)O)cc4)nc32)[C@H](O)[C@@H]1O [CGS 21680 HCl]
Z.CTG (ISC-enriched organoids [2]; [20]): 0.724
Z.CTG (ISC-enriched organoids [2]; [21]): 1.049
Z.CTG (ISC-enriched organoids [2]; [22]): 0.799
Z.CTG (ISC-enriched organoids [2]; [23]): −3.328

O=C(O)/C=C/c1ccc(Cn2ccnc2)cc1 [Ozagrel]
Z.CTG (ISC-enriched organoids [2]; [20]): 0.131
Z.CTG (ISC-enriched organoids [2]; [21]): 0.535
Z.CTG (ISC-enriched organoids [2]; [22]): −0.149
Z.CTG (ISC-enriched organoids [2]; [23]): 0.271

C#CCN[C@@H]1CCc2ccccc21 [Rasagiline Mesylate]
Z.CTG (standard z score) (ISC-enriched organoids [2]; Dose 0.08 uM, primary screen): 0.367
Z.CTG (standard z score) (ISC-enriched organoids [2]; Dose 0.40 uM, primary screen): 0.246
Z.CTG (standard z score) (ISC-enriched organoids [2]; Dose 2.00 uM, primary screen): 0.099
Z.CTG (standard z score) (ISC-enriched organoids [2]; Dose 10.00 uM, primary screen): 0.249

CCC(=O)NCC[C@@H]1CCc2ccc3c(c21)CCO3 [Ramelteon]
Z.CTG (standard z score) (ISC-enriched organoids [2]; Dose 0.08 uM, primary screen): −0.066
Z.CTG (standard z score) (ISC-enriched organoids [2]; Dose 0.40 uM, primary screen): 0.369
Z.CTG (standard z score) (ISC-enriched organoids [2]; Dose 2.00 uM, primary screen): −0.752
Z.CTG (standard z score) (ISC-enriched organoids [2]; Dose 10.00 uM, primary screen): 0.358

OC(CNCC(O)C1CCc2cc(F)ccc2O1)C1CCc2cc(F)ccc2O1 (stereo not shown) [Nebivolol]
Z.CTG (ISC-enriched organoids [2]; [20]): 0.926
Z.CTG (ISC-enriched organoids [2]; [21]): 0.526
Z.CTG (ISC-enriched organoids [2]; [22]): 0.746
Z.CTG (ISC-enriched organoids [2]; [23]): 0.499

COC(=O)C1=C(C#N)NC(C)=C(C(=O)OC(C)C)C1c1cccc([N+](=O)[O-])c1 (stereo not shown) [Nilvadipine]
Z.CTG (ISC-enriched organoids [2]; [20]): 0.493
Z.CTG (ISC-enriched organoids [2]; [21]): 0.324
Z.CTG (ISC-enriched organoids [2]; [22]): 0.506
Z.CTG (ISC-enriched organoids [2]; [23]): 0.460

CCN(CC)C(=O)/C(C#N)=C/c1cc(O)c(O)c([N+](=O)[O-])c1 [Entacapone]
Z.CTG (ISC-enriched organoids [2]; [20]): −0.275
Z.CTG (ISC-enriched organoids [2]; [21]): −0.154
Z.CTG (ISC-enriched organoids [2]; [22]): 0.493
Z.CTG (ISC-enriched organoids [2]; [23]): −0.935
